Data published in PubChem BioAssay AID1845213 (Molecular Pharmacology Branch, DTP, NCI, 2023).

Tested on: NCI-H841 complex tumor spheroid viability
Assay: Anticancer human tumor NCI-H841 cell line growth inhibition;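 also: spheroids exposed to compounds for 7 days before readout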;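 as to viability, T/C: 100% = DMSO vehicle control wells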
Details: for IC50: curve of first compound; for viability, T/C: stronger effect = lower value
Description: Multicellular complex tumor spheroid response to DNA repair inhibitors in combination with DNA-damaging drugs
This study explores the anticancer activities of DNA-damaging drugs and inhibitors of DNA damage repair, both as single agents and in combinations. Complex tumor spheroids comprised of malignant cells, endothelial cells and mesenchymal stem cells served as an in vitro model for human solid tumors. This model system incorporates physiologically relevant features and patient-derived or established malignant cell lines with clinically relevant genetic alterations from many tumor types. Twenty-six patient-derived or established malignant cell lines were evaluated representing sarcoma, melanoma, small cell lung cancer (SCLC), non-small cell lung cancer (NSCLC), as well as bladder, ovarian and pancreatic cancers. The concentration ranges selected for each drug and investigational agent were based upon clinically achievable concentrations if the clinical Cmax of the agent was known.
Compounds. The drugs and compounds olaparib (NSC753686), talazoparib (NSC767125), berzosertib (NSC777718), elimusertib (NSC800525), nedisertib (NSC802822), VX-984 (NSC792969), AZD-1390 (NSC803789), temozolomide (NSC362856), topotecan (NSC609699), trabectedin (NSC813783), staurosporine (NSC755774), and gemcitabine (NSC613327) were obtained from the National Cancer Institute (NCI) Developmental Therapeutics Program Chemical Repository. The FDA-approved anticancer drug set is available from the Developmental Therapeutics Program at https://dtp.cancer.gov/organization/dscb/obtaining/available_plates.htm. […] The stock solutions were prepared in dimethyl sulfoxide (DMSO, Sigma-Aldrich, St. Louis, MO, cat. D2650) at 400-fold the tested concentration and stored at -70 degrees C. Prior to their use, the stock solutions were diluted in fresh medium and the final DMSO concentration in the assay was 0.25% (v/v). All drugs and investigational agents were tested over a range starting from a high concentration at or near the clinical Cmax and decreasing in half-log increments. If the clinical Cmax for an agent had not been determined, the highest concentration tested was 10 microM.
Cell Lines. The patient-derived cancer cell (PDC) lines: 156681-154-R-J1-PDC, 283228-195-R-J1-PDC, 287954-098-R-J1-PDC, 292921-168-R-J2-PDC, 349418-098-R-PDC, 425362-245-T-J1-PDC, 556581-035-R-J1-PDC, and BL0293-F563-PDC were received from the NCI Patient-Derived Models Repository (PDMR, https://pdmr.cancer.gov). The established cell lines HS-SY-2 (RRID:CVCL_8719), MPNST, and SYO-1 (RRID:CVCL_7146) were obtained from the Sloan Kettering Institute. The alveolar soft parts sarcoma cell line ASPS-1 (RRID:CVCL_S738) was established at the NCI and grown from internal seed stocks. The following established cell lines were purchased from the American Type Culture Collection (ATCC, Manassas, VA): G-401 (ATCC, cat. CRL-1441, RRID:CVCL_0270), SW982 (ATCC, cat. HTB-93, RRID:CVCL_1734), VA-ES-BJ (ATCC, cat. CRL-2138, RRID:CVCL_1785), NCI-H719 (ATCC, cat. CRL-5837, RRID:CVCL_1582), NCI-H196 (ATCC, cat. CRL-5823, RRID:CVCL_1509), NCI-H841 (ATCC, cat. CRL-5845, RRID:CVCL_1595), NCI-H1618 (ATCC, cat. CRL-5879, RRID:CVCL_1480), NCI-H1876 (ATCC, cat. CRL-5902, RRID:CVCL_1503), DMS 114 (ATCC, cat. CRL-2066; RRID:CVCL_1174), NCI-H211 (ATCC, cat. CRL-5824; RRID:CVCL_1529), and SW 1271 (ATCC, cat. CRL-2177, RRID:CVCL_1716). The small cell lung cancer cell line COR-L88 was purchased from Sigma-Aldrich (cat. 92031917-1VL, RRID:CVCL_1141). The non-small cell lung cancer cell lines NCI-H226 (RRID:CVCL_1544) and NCI-H322M (RRID:CVCL_1557) were established at the NCI and grown from internal seed stocks. Pooled donor human umbilical vein endothelial cells (HUVEC, Lonza, cat. CC-2519) and human mesenchymal stem cells (hMSC, Lonza, cat. PT-2501) were purchased from Lonza (Walkersville, MD).
Cell Culture. All cells were maintained in an incubator at 37 degrees C and 5% CO2 with 95% humidity. […]

[1] = second compound 0.003 µM, first compound 0.0316 µM
[2] = second compound 0.003 µM, first compound 0.1 µM
[3] = second compound 0.003 µM, first compound 0.316 µM
[4] = second compound 0.003 µM, first compound 1 µM
[5] = second compound 0.003 µM, first compound 3.16 µM
[6] = second compound 0.003 µM, first compound 10 µM
[7] = second compound 0.00949 µM, first compound 0.0316 µM
[8] = second compound 0.00949 µM, first compound 0.1 µM
[9] = second compound 0.00949 µM, first compound 0.316 µM
[10] = second compound 0.00949 µM, first compound 1 µM
[11] = second compound 0.00949 µM, first compound 3.16 µM
[12] = second compound 0.00949 µM, first compound 10 µM
[13] = second compound 0.03 µM, first compound 0.0316 µM
[14] = second compound 0.03 µM, first compound 0.1 µM
[15] = second compound 0.03 µM, first compound 0.316 µM
[16] = second compound 0.03 µM, first compound 1 µM
[17] = second compound 0.03 µM, first compound 3.16 µM
[18] = second compound 0.03 µM, first compound 10 µM
[19] = second compound 0.0949 µM, first compound 0.0316 µM
[20] = second compound 0.0949 µM, first compound 0.1 µM
[21] = second compound 0.0949 µM, first compound 0.316 µM
[22] = second compound 0.0949 µM, first compound 1 µM
[23] = second compound 0.0949 µM, first compound 3.16 µM
[24] = second compound 0.0949 µM, first compound 10 µM
[25] = second compound 0.3 µM, first compound 0.0316 µM
[26] = second compound 0.3 µM, first compound 0.1 µM
[27] = second compound 0.3 µM, first compound 0.316 µM
[28] = second compound 0.3 µM, first compound 1 µM
[29] = second compound 0.3 µM, first compound 3.16 µM
[30] = second compound 0.3 µM, first compound 10 µM

SMILES	IC50 (second compound 0.003 µM)	IC50 (second compound 0.00949 µM)	IC50 (second compound 0.03 µM)	IC50 (second compound 0.0949 µM)	IC50 (second compound 0.3 µM)	viability, T/C [1]	viability, T/C [2]	viability, T/C [3]	viability, T/C [4]	viability, T/C [5]	viability, T/C [6]	viability, T/C [7]	viability, T/C [8]	viability, T/C [9]	viability, T/C [10]	viability, T/C [11]	viability, T/C [12]	viability, T/C [13]	viability, T/C [14]	viability, T/C [15]	also measured
CC1COCCN1c1cc(-c2ccnn2C)c2ccnc(-c3ccn[nH]3)c2n1 (stereo not given) + CC[C@@]1(O)C(=O)OCc2c1cc1n(c2=O)Cc2cc3c(CN(C)C)c(O)ccc3nc2-1	< 0.0316 µM	< 0.0316 µM	< 0.0316 µM	< 0.0316 µM	< 0.0316 µM	8.47%	2.38%	1.1%	1.26%	1.27%	1.76%	1.08%	0.71%	0.73%	0.86%	1.2%	1.56%	0.77%	0.57%	0.65%	viability, T/C [16]: 0.82%; viability, T/C [17]: 1.08%; viability, T/C [18]: 1.32%; viability, T/C [19]: 0.39%; viability, T/C [20]: 0.37%; viability, T/C [21]: 0.5%; viability, T/C [22]: 0.56%; viability, T/C [23]: 0.78%; viability, T/C [24]: 1.13%; viability, T/C [25]: 0.42%; viability, T/C [26]: 0.41%; viability, T/C [27]: 0.4%; viability, T/C [28]: 0.5%; viability, T/C [29]: 0.54%; viability, T/C [30]: 0.72%
COc1cc(C)[nH]c(=O)c1CN1CCc2c(Cl)cc(C(OC)C3COC3)c(Cl)c2C1=O (stereo not given) + CC[C@@]1(O)C(=O)OCc2c1cc1n(c2=O)Cc2cc3c(CN(C)C)c(O)ccc3nc2-1	3.82 µM	0.231 µM	< 0.0316 µM	< 0.0316 µM	< 0.0316 µM	86.1%	72.1%	62.9%	56.6%	49.7%	47.5%	82.3%	62.6%	43.2%	38.2%	32.5%	27.9%	3.53%	1.86%	4.87%	viability, T/C [16]: 2.31%; viability, T/C [17]: 2.71%; viability, T/C [18]: 2.37%; viability, T/C [19]: 1.65%; viability, T/C [20]: 1.4%; viability, T/C [21]: 1.34%; viability, T/C [22]: 1.12%; viability, T/C [23]: 0.95%; viability, T/C [24]: 0.94%; viability, T/C [25]: 1.75%; viability, T/C [26]: 1.53%; viability, T/C [27]: 1.29%; viability, T/C [28]: 0.89%; viability, T/C [29]: 1.03%; viability, T/C [30]: 0.98%
Cc1cc(C)c(CNC(=O)c2cc(-c3ccc(CN4CCOCC4)cc3)cc3c2cnn3C2CCCC2)c(=O)[nH]1 + CC[C@@]1(O)C(=O)OCc2c1cc1n(c2=O)Cc2cc3c(CN(C)C)c(O)ccc3nc2-1	5.6 µM	0.713 µM	< 0.0316 µM	< 0.0316 µM	< 0.0316 µM	93.6%	94.4%	91.9%	83.5%	65.2%	34.7%	69.6%	60.8%	63.4%	44.7%	21.7%	9.9%	2.88%	2.59%	2.6%	viability, T/C [16]: 1.45%; viability, T/C [17]: 1.14%; viability, T/C [18]: 1.49%; viability, T/C [19]: 1.83%; viability, T/C [20]: 1.47%; viability, T/C [21]: 1.42%; viability, T/C [22]: 1.4%; viability, T/C [23]: 1.41%; viability, T/C [24]: 1.58%; viability, T/C [25]: 7.2%; viability, T/C [26]: 1.62%; viability, T/C [27]: 1.88%; viability, T/C [28]: 1.53%; viability, T/C [29]: 1.17%; viability, T/C [30]: 4.17%
[2H]c1nc(C)nc([2H])c1-c1cc(NC[C@@H](C)c2cccc3c(C(=O)NC)ccnc23)ncn1 + CC[C@@]1(O)C(=O)OCc2c1cc1n(c2=O)Cc2cc3c(CN(C)C)c(O)ccc3nc2-1	> 10 µM	> 10 µM	< 0.0316 µM	< 0.0316 µM	< 0.0316 µM	97.6%	95.8%	96.1%	96.4%	93.4%	93%	83.9%	76.5%	74.4%	75.2%	68.7%	62.6%	2.66%	2.14%	2.36%	viability, T/C [16]: 1.49%; viability, T/C [17]: 1.43%; viability, T/C [18]: 1.47%; viability, T/C [19]: 1.75%; viability, T/C [20]: 1.82%; viability, T/C [21]: 1.89%; viability, T/C [22]: 1.74%; viability, T/C [23]: 1.58%; viability, T/C [24]: 1.67%; viability, T/C [25]: 1.97%; viability, T/C [26]: 1.94%; viability, T/C [27]: 1.59%; viability, T/C [28]: 1.73%; viability, T/C [29]: 1.5%; viability, T/C [30]: 1.17%
